The text below walks through data of article PMC10667816, “A Cell‐Penetrant Peptide Disrupting the Transcription Factor CP2c Complexes Induces Cancer‐Specific Synthetic Lethality” (Advanced Science, 2023).

*1 amine or outer side, *2 acyl side, *3 side chain or, on linkers, in order; H or OH if unused. Where a SMILES comes first, the peptide text is derived from it. Side-chain parts run from the residue outwards. The star is where a group is joined. γGlu = O=C(O)[C@H](CCC(=O)[*:2])N[*:1]; Palmitoyl = CCCCCCCCCCCCCCCC(=O)*

For one series, the system named is ICR mice. Nature of the series: Repeated toxicity test of ACP52CGK. The settings on record: 100 mpk intravenously daily for 4 weeks, n = 6/group; brain, heart, liver. In kind it is in vivo, mouse. The procedure: To assess the toxicity of ACP52C, twelve 6‐weeks‐old ICR mice (six males and six females) were divided into three groups, each containing two mice: one group received a saline, another received 100 mg kg^−1 of ACP52C, and the third received 1000 mg kg^−1 of ACP52C. For each group, one mouse was intravenously injected once, and the other one was intravenously injected twice with a four‐day interval between injections. At the time of sacrifice, major organs were analyzed by H&E staining. To assess the repeated toxicity of ACP52CGK, twenty‐four 6‐weeks‐old ICR mice (twelve males and twelve females) were used, dividing them into two groups of six mice each: one group received saline, and the other received 100 mg kg^−1 of ACP52CGK. […] Body weight, water and feed consumption were measured every 3 days after injection. […] Major organs were weighed and analyzed by H&E staining. H&E‐stained tissue sections were analyzed and photographed, and the representative histological images were recorded. […]
Repeated toxicity test of ACP52CGK were analyzed in ICR mice by intravenous injection of 100 mpk of ACP52CGK daily for 4 weeks (n = 6/group). A-C) Body weight (A), water consumption (B), and food consumption (C) were measured once every 3 days after injection. D-F) Major organ weight (D), CBC (E), and blood chemistry (F) were measured after sacrifice. Data are expressed as means ± SD in (B-F). […]

Series [1] concerns diethylnitrosamine (DEN)‐induced orthotopic liver cancer. Kind of series: DEN‐induced orthotopic liver cancer mouse model. In kind it is in vivo. Conditions: administered at five‐day intervals, C57BL/6 mice.
Series [2] concerns α‐globin mRNA expression in iMEL cells. Kind of series: Transcription inhibition of α‐globin mRNA expression. Type of series: cell-based, murine. The settings on record: α‐globin (Hba-a2) mRNA, 36 h after ACP52C treatment, two independent biological replicates, read-out: TI50 (the source's name). The procedure:
To quantify mRNA expression of the gene of interest, cells were harvested, and total cellular RNA was extracted using Qiazol reagent (Qiagen, 79306). Purified RNA was dissolved in Diethyl pyrocarbonate (DEPC) water. Reverse transcription was performed using a High‐Capacity cDNA reverse transcription kit (Toyobo, FSQ‐201) in the presence of 400 ng of total RNA and 10 pmol random hexamer. PCR was performed using rTaq Plus 5X PCR master mix (Elpis‐Biotech, EBT‐1319) and the SYBR green Master Mix Kit. Amplifications were performed using a Light cycler 1.5 real‐time PCR system.^[ [43] ^] The relative mRNA expression levels were determined using the 2(−ΔCt) method, with GAPDH transcript levels serving as an internal control. Errors were calculated from at least two independent experiments. Oligonucleotide primers used in RT–qPCR are listed in Table S2 (Supporting Information).
Figure S13. The relationship between ACP52C-mediated growth inhibition and transcriptional
cell differentiation in vitro.
at 36 h after ACP52C treatment of various doses.
biological replicates. […] C)
expression in uMEL and iMEL c ells. D-G) Anticancer activity of ACP52C correlates with cellular
Modulation of GI50 values in cancer cells by
ACP52C treatment. […] Duplicated data
are expressed as means ± SD.

Series [3] deals with T1, endogenous nuclear and cytoplasmic CP2c complexes (Homo sapiens, UniProt Q12800).
T1 construct: dissociated all endogenous nuclear and cytoplasmic CP2c complexes; endogenous in cells
T1 sequence (Q12800 whole entry, one chain of several): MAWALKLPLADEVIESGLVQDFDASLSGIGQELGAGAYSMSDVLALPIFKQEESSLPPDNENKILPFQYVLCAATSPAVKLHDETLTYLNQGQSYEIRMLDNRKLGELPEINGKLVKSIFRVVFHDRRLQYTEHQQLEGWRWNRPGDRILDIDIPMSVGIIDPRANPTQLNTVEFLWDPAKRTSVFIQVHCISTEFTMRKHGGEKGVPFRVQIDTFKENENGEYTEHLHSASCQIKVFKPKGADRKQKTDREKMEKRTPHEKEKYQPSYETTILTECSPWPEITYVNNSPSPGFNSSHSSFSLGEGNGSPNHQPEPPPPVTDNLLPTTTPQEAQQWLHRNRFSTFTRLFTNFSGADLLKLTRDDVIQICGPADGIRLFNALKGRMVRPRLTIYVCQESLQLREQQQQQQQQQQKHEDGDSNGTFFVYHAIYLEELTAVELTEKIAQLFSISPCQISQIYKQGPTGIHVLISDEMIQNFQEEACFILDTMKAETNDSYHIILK
Kind of series: DSP crosslinking‐Western blot of endogenous CP2c complexes. In kind it is cell-based. The settings on record: DSP XL‐WB and WB with new protein synthesis inhibition. The procedure: Cell extracts were prepared using lysis buffer (50 mM Tris‐HCl, pH 7.4, 150 mM NaCl, 1 mM EDTA, 0.1% triton X‐100, and 1 mM PMSF). The cell extracts were separated by SDS‐PAGE and electro‐blotted onto polyvinylidene difluoride (PVDF) membranes (GE healthcare, 10600069). For slot blotting, the cell extracts were blotted onto nitrocellulose (NC) membranes (GE healthcare, 10484059) using a Bio‐Dot (Bio‐Rad, 1706542). Typically, membranes were blocked with 5% non‐fat dry milk in a solution of 0.1% Tween 20, and with 5% BSA in case of biotin blotting. Membranes were incubated overnight at 4 °C with appropriate dilutions of the primary antibodies (listed in Table S4, Supporting Information) after blocking. The blots were incubated for 1 h at room temperature with the respective HRP‐conjugated secondary antibodies (listed in Table S4, Supporting Information). Polyclonal ACTB antibody was used as a loading control for WB. […] Relative amounts of proteins were quantified using Image J (ver. 1.51) program.
To determine DNA‐free CP2c containing complexes, live cells were washed twice with the 2.5 mM sodium phosphate buffer, pH 7.4, crosslinked using 2 mM DSP in PBS for 3 h on ice, and crosslinking was terminated with 50 mM Tris‐HCl, pH 7.4, for 15 min at room temperature. […] Crosslinked samples were analyzed by pulldown assay or mass spectrometry.

Series [4] has as its system normal cells such as mesenchymal stem cells and embryonic stem cells. Nature of the series: Cell death in normal cells. In kind it is cell-based, human. As for the experimental part:
performance of FQI1. Two micromoles of each Pep #5-2C and FQI1 were added to the cell culture for 2 days. Fractions of benzidine-positive stained cells were counted in MEL cells (n > 100 cells/group) treated with HMBA for 2 days. Hba-a2 gene expression at mRNA and protein levels were estimated by RT-qPCR […]
and WB, respectively. […] ANOVA […]
similar performance of Pep #5 or Pep #5-2. DNA-pull down assays for the [C4] complex (B) and the CBP […]
complexes (C). […] Two-tailed […]
formation by itself, surpassing the performance of FQI1. Co-IP assays for the [C4] complex (D) and the […]
CBP complexes (E). […] Student’s […]
than FQI1. G) Cell growth inhibition plots and GI50 values of FQI1 and ACP52C in various cancer cell lines and normal cells over peptide dose. GI50 values estimated from two independent biological replicates. […]
hESCs were cultured on the Rhodamine -labeled MEF cells. Ten micromoles of each ACP52C and FQI1 were added to the cell culture for 3 days before capturing images of cultures.

Consider `CCCCCCCCCCCCCCCC(=O)N[C@@H](CCC(=O)NCCCC[C@H](NC(=O)CNC(=O)CNC(=O)[C@@H]1CCCN1C(=O)[C@H](CCCNC(=N)N)NC(=O)[C@H](CCC(N)=O)NC(=O)[C@@H]1CCCN1C(=O)[C@H](Cc1ccc(O)cc1)NC(=O)[C@H](CC(N)=O)NC(C)=O)C(=O)NCC(=O)NCC(=O)N[C@@H](CS)C(=O)N[C@@H](CCCNC(=N)N)C(=O)NCC(=O)N[C@@H](CC(=O)O)C(=O)N[C@@H](CCCCN)C(=O)NCC(=O)N1CCC[C@H]1C(=O)N[C@@H](CC(=O)O)C(=O)N[C@@H](CS)C(N)=O)C(=O)O` [ACP52CGK] (Ac-NYPQRPGGK([γGlu-Palmitoyl])GGCRGDKGPDC-NH2), for which, in the series with ICR mice, the “adverse effects in normal organs” value is on record as “did not induce any adverse effects”. In addition, in series [1], the “anti‐tumor efficacy” value is “remarkable anti‐tumor efficacy”.
Turning to `CC(=O)N[C@@H](CC(N)=O)C(=O)N[C@@H](Cc1ccc(O)cc1)C(=O)N1CCC[C@H]1C(=O)N[C@@H](CCC(N)=O)C(=O)N[C@@H](CCCNC(=N)N)C(=O)N1CCC[C@H]1C(=O)N[C@@H](CS)C(=O)N[C@@H](CCCNC(=N)N)C(=O)NCC(=O)N[C@@H](CC(=O)O)C(=O)N[C@@H](CCCCN)C(=O)NCC(=O)N1CCC[C@H]1C(=O)N[C@@H](CC(=O)O)C(=O)N[C@@H](CS)C(N)=O` [ACP52C] (Ac-NYPQRPCRGDKGPDC-NH2), the IC50 in series [2] was approximately 15 µM. The “dissociation of endogenous CP2c complexes” value in series [3] is “readily dissociated all endogenous nuclear and cytoplasmic CP2c complexes”.
Take `CCOc1ccccc1C1CC(=O)Nc2cc3c(cc21)OCO3` (centres unmarked) [FQI1, Factor Quinolinone Inhibitor 1, reference compound]: in series [4], the “induction of cell death in normal cells” value was “potential to induce cell death”.
